Read-outs that look alike come from different tables or passages of the source.
Experiments:
normal human melanocytes = test: Depigmenting activity (reduction of melanin production) in normal human melanocytes in vitro; format: cell-based; conditions: Melanocyte, read-out: IC50 (concentration at which 50% decrease in melanin synthesis is achieved)
Protocol: The measurement of the depigmenting activity (reduction of melanin production) of compounds of formula (I) was carried out by assaying normal human melanocytes in vitro as follows.
First of all, normal human melanocytes are cultured and dispensed into 384 wells. After 24 hours, the culture medium was replaced with a medium containing compounds of formula (I) to be evaluated. The cells were incubated for 72 hours before measuring the final optical density, which measures the amount of melanin produced by the melanocytes. A dose-effect is performed using a wide concentration range of the compounds evaluated. Thus, by making the concentrations and the melanin measurements correspond, it is possible to determine an IC50 in μM: concentration at which 50% decrease in melanin synthesis is achieved. The highest concentration used in the test is 200 μM.

[1] = test system: pigmented reconstructed epidermis; test: Test on pigmented reconstructed epidermis samples (melanin quantified by image analysis); format: cell-based, human; conditions: pValue<0.05, control DMSO
Protocol: […] EP 1 878 790). The control is DMSO. The melanin was quantified by image analysis on histological slices after staining with Fontana Masson dye. Each sample of coloured epidermis is photographed over its entire length using a camera connected to a microscope. The melanin is thresholded and the number of melanin pixels is measured in each field using automated image analysis software. A non-parametric statistical test is performed in order to determine the significance of the measurements (Mann-Whitney test).
The pigmented reconstructed epidermis standard study model was published by:
Regnier M, Duval C, Galey J B, Philippe M, Lagrange A, Tuloup R, Schmidt R, Cellular and Molecular Biology, 1999, 45, 7, 969-980: “Keratinocyte-Melanocyte co-cultures and pigmented reconstructed human epidermis: models to study modulation of melanogenesis”.

[2] = Homo sapiens, another campaign, comparison with closest prior art compound of FR 2 968 661
[3] = normal human melanocytes, 72 hours incubation, optical density, highest concentration 200 μM

Work on `CCOC(=O)C(C)NC(=O)c1ccc[nH]c1=S` (stereo not shown) [reference compound] yielded an IC50 (normal human melanocytes; [2]) of 37.4 µM.
For `CN(CC(=O)O)C(=O)c1ccc[nH]c1=S` [Compound 2, N-methyl-N-[(2-thioxo-1,2-dihydropyridin-3-yl)carbonyl]glycine], the IC50 (normal human melanocytes; [3]) was 5.27 µM and the “depigmenting activity (melanin quantification, Mann-Whitney test)” value (“depigmenting activity” for short) ([1]; at 100 μM) was “Significant depigmenting activity”.
With `CCOC(=O)CNC(=O)c1ccc[nH]c1=S` [Compound 3, Ethyl N-[(2-thioxo-1,2-dihydropyridin-3-yl)carbonyl]glycinate] the IC50 (normal human melanocytes; [2]) was 20.8 µM, the IC50 (normal human melanocytes; [3]) was 36.8 µM and the “depigmenting activity” value ([1]; at 300 μM) was “Significant depigmenting activity”.
For `CCOC(=O)CN(C)C(=O)c1ccc[nH]c1=S` [Compound 4, Ethyl N-methyl-N-[(2-thioxo-1,2-dihydropyridin-3-yl)carbonyl]glycinate], the IC50 (normal human melanocytes; [3]) was 67.6 µM and the “depigmenting activity” value ([1]; at 300 μM) was “Significant depigmenting activity”.
In the case of `O=C(O)CNC(=O)c1ccc[nH]c1=S` [Compound 1, N-[(2-thioxo-1,2-dihydropyridin-3-yl)carbonyl]glycine], the IC50 (normal human melanocytes; [3]) is reported as 11.4 µM and the “depigmenting activity” value ([1]; at 100 μM) is reported as “Significant depigmenting activity”.

Source: patent US20190380937A1, “PROCESS FOR DEPIGMENTING KERATIN MATERIALS USING THIOPYRIDINONE COMPOUNDS” (L'OREAL, priority 2015, published 2019)
